Here are results for twelve substances from patent US20160238590A1, “COMPOSITIONS AND METHODS RELATED TO OAT SENSITIVITY” (IMMUSANT, INC., priority 2013, published 2016).

Where no end group is shown, it is not given here. [ ]: non-standard residue; d: D form. pGlu = O=C1CC[C@@H](C(=O)O)N1

Holding throughout (experiment): IFN-γ ELISpot with T cell clone
Type in all cases: cell-based, human

One experiment deals with Patient 6 TCC-01. The note with it: TCC Patient 6 TCC-01 (Table 5); mean no antigen 2. The method, then:
(§1) Peripheral blood mononuclear cells (PBMC) were isolated from heparinized whole blood using Ficoll-Paque™ Plus density-gradient centrifugation (GE Healthcare). IFN-γ ELISpot (Mabtech) was set up as previously described^8.
(§2) Isolation of TCC from CD patients was carried out as previously described^8. Briefly, CFSE-labeled PBMC were incubated with antigen for 7 days in IMDM supplemented with 5% heat-inactivated pooled human serum (PHS), 2 mM GlutaMAX™, 100 μM MEM non-essential amino acids (both from Gibco, Invitrogen), and 50 μM 2-mercaptoethanol (Sigma). Proliferated cells were single-cell sorted into 96-well plates containing IL-2, IL-4, anti-CD3 mAb, irradiated feeder cells (allogeneic PBMC and JY-EBV). TCC were expanded and maintained in IL-2 and IL-4 and tested for specificity by ELISpot with irradiated HLA-matched PBMC as antigen-presenting cells. Expanded clones were tested for HLA-DQ restriction, TCR Vbeta usage, and with lysine scans to work out minimal epitopes. See Table 1 below for TCC and epitope information.

In another experiment the test system is Patient 2 TCC-01. The note with it: TCC Patient 2 TCC-01 (Table 5); mean no antigen 1.1. The procedure: as §1, §2
A further experiment relates to Patient 14 TCC-01. The note with it: TCC Patient 14 TCC-01 (Table 5); mean no antigen 11.3, high background, SFU >25 considered as positive responses. The procedure:
as §1, §2

As for “pEPEQIIPEQPEQPS ([pGlu]PEQIIPEQPEQPS) [rye peptide, AAB58403.1 (195-208) [Q195 to pyroglutamate, Q202 to E, Q205 to E], reference compound]”, the “IFN-γ ELISpot response (raw SFU)” value in the experiment with Patient 6 TCC-01 is on record as 3 SFU; in the experiment with Patient 2 TCC-01, 2 SFU; with Patient 14 TCC-01, 59 SFU.

In the case of “pEPEQPFPEQPQQII ([pGlu]PEQPFPEQPQQII) [rye peptide, AAB58403.1 (187-200) [Q187 to pyroglutamate, Q189 to E, Q194 to E], reference compound]”, the “IFN-γ ELISpot response (raw SFU)” value in the experiment on Patient 6 TCC-01 is on record as 0 SFU; in the experiment with Patient 2 TCC-01, 0 SFU; in the experiment with Patient 14 TCC-01, 58 SFU.

For the substance “PQPFPEQPIPEQPQPY [barley peptide, 1103203A (27-42) [Q32 to E, Q37 to E]]”, the “IFN-γ ELISpot response (raw SFU)” value was determined as 60 SFU in the experiment on Patient 6 TCC-01, 1 SFU with Patient 2 TCC-01 and 38 SFU with Patient 14 TCC-01.

As to “FPEQPIPEQPQPYP [barley peptide, 1103203A (30-43) [Q232 to E, Q37 to E]]”, the “IFN-γ ELISpot response (raw SFU)” value with Patient 6 TCC-01 stood at 92 SFU; with Patient 2 TCC-01, 1 SFU; with Patient 14 TCC-01, 66 SFU.

Regarding “PEQPFPEQPQPYPQQP [barley peptide, AFM77740.1 (25-40) [Q26 to E, Q31 to E]]”, the “IFN-γ ELISpot response (raw SFU)” value is on record as 73 SFU in the experiment on Patient 6 TCC-01, 202 SFU in the experiment on Patient 2 TCC-01 and 66 SFU in the experiment with Patient 14 TCC-01.

As for “pEPFPEQPEQPYPQQ ([pGlu]PFPEQPEQPYPQQ) [wheat peptide, CAC11056.1 (53-66) [Q53 to pyroglutamate, Q57 to E, Q60 to E], reference compound]”, the “IFN-γ ELISpot response (raw SFU)” value was determined as 1 SFU in the experiment on Patient 6 TCC-01, 150 SFU in the experiment on Patient 2 TCC-01 and 19 SFU in the experiment with Patient 14 TCC-01.

With “pEPFPEQPEQPFPQP ([pGlu]PFPEQPEQPFPQP) [wheat peptide, ACO40292.1 (81-94) [Q81 to pyroglutamate, Q85 to E, Q88 to E], reference compound]”, the “IFN-γ ELISpot response (raw SFU)” value with Patient 6 TCC-01 was 5 SFU; in the experiment on Patient 2 TCC-01 it was 119 SFU; in the experiment on Patient 14 TCC-01, 14 SFU.

With “FPEQPVPEQPQPYP [barley peptide, 1103203B (30-43) [Q32 to E, Q37 to E]]”, the figures for the “IFN-γ ELISpot response (raw SFU)” value with Patient 6 TCC-01, in the experiment on Patient 2 TCC-01 and with Patient 14 TCC-01 were 99 SFU, 2 SFU and 78 SFU, respectively.

On to “pEQPFTQPEQPTPIQ ([pGlu]QPFTQPEQPTPIQ) [wheat peptide, AAG17702.1 (78-91) [Q78 to pyroglutamate, Q85 to E], reference compound]”, for which the results for the “IFN-γ ELISpot response (raw SFU)” value in the experiment on Patient 6 TCC-01, in the experiment on Patient 2 TCC-01 and in the experiment on Patient 14 TCC-01 were 65 SFU, 0 SFU and 13 SFU, respectively.

Take “pEQPFPQPEQPTPIQ ([pGlu]QPFPQPEQPTPIQ) [rye peptide, AAB58403.1 (65-78) [Q65 to pyroglutamate, Q72 to E], reference compound]”: the “IFN-γ ELISpot response (raw SFU)” value in the experiment with Patient 6 TCC-01 turned out to be 34 SFU; in the experiment on Patient 2 TCC-01 it was 1 SFU; in the experiment with Patient 14 TCC-01, 20 SFU.

Consider “pEQPFPQPEQPQLPF ([pGlu]QPFPQPEQPQLPF) [wheat peptide, AAK84772.1 (126-139) [Q126 to pyroglutamate, Q133 to E], reference compound]”, for which the “IFN-γ ELISpot response (raw SFU)” value with Patient 6 TCC-01 came to 23 SFU; with Patient 2 TCC-01, 4 SFU; with Patient 14 TCC-01 it was 14 SFU.

Regarding “pEQPQPYPEQPQPYP ([pGlu]QPQPYPEQPQPYP) [barley peptide, AFM77740.1 (31-44) [Q31 to pyroglutamate, Q38 to E]]”, the “IFN-γ ELISpot response (raw SFU)” value with Patient 6 TCC-01 was 52 SFU; in the experiment on Patient 2 TCC-01, 316 SFU; with Patient 14 TCC-01 it was 27 SFU.
